Data on 13 compounds can be found in PubChem BioAssay (NCI).

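96-well plates; 48 h exposure; 5 concentrations. Endpoints by linear interpolation between flanking doses. Not reached: highest tested concentration assigned. GI50 is the concentration that inhibits growth by half. The concentration for full growth arrest is given as TGI.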 Bounds are passed on as bounds.

Some test systems named below: CAKI-1 renal; HT29 colon; NCI-H522 lung; SF-539 CNS; T-47D breast; TK-10 renal; UACC-257 melanoma; CCRF-CEM leukemia; RXF 393 renal.
Experiment in all cases: growth of human tumour cells (NCI), 48 h

With `N#CC(c1ccccc1)c1cccc2ccccc12` (configuration not stated), the TGI in the test on CAKI-1 renal was 52.1 µM; with HT29 colon, above 100 µM; in the test with NCI-H522 lung, 53.9 µM; in the test on SF-539 CNS, above 100 µM; with T-47D breast, above 100 µM; in the test with TK-10 renal, above 100 µM. The TGI with UACC-257 melanoma is 67.3 µM.

In the case of `C=C(Br)CN(C#N)CC(=C)Br`, the TGI with CAKI-1 renal, in the test on CCRF-CEM leukemia, with HT29 colon, in the test with NCI-H522 lung, in the test on RXF 393 renal and in the test with SF-539 CNS was above 100 µM each time. In addition, the TGI in the test with T-47D breast, in the test with TK-10 renal and in the test on UACC-257 melanoma was above 100 µM in each case.

As for `Cc1nnc2c3c(-c4ccccc4)c(-c4ccccc4)oc3nc(N(C)C)n12`, the TGI in the test with CAKI-1 renal, in the test on CCRF-CEM leukemia, in the test on HT29 colon, in the test with NCI-H522 lung, in the test with RXF 393 renal and in the test on SF-539 CNS was above 100 µM each time. The TGI with T-47D breast, in the test with TK-10 renal and in the test on UACC-257 melanoma was above 100 µM in each case.

As to `C=C1CCCCCCCCCCC1S(=O)c1ccccc1` (configuration not stated), the TGI was above 100 µM with CAKI-1 renal; above 100 µM in the test on HT29 colon; 64.5 µM with RXF 393 renal; 37.2 µM with SF-539 CNS; above 100 µM with T-47D breast; above 100 µM with UACC-257 melanoma.

As to `CC(NC(=O)c1ccc(OP(=O)(OCC2=CC(=O)c3ccccc3C2=O)N(C)CCCCCl)cc1)c1ccc(OCC2CCCCC2)c(C(N)=O)c1` (configuration not stated), the TGI in the test on CAKI-1 renal amounted to 35.5 µM; with CCRF-CEM leukemia it was 30.6 µM; in the test with HT29 colon, 31.2 µM; in the test on NCI-H522 lung it was 29 µM; with SF-539 CNS, 28.5 µM; in the test on T-47D breast it was 10.5 µM. The figures for the TGI in the test on TK-10 renal and in the test on UACC-257 melanoma were 61.7 µM and 18.6 µM, respectively.

With `NCCCCCCNc1cc(-c2cccc(OC(F)(F)F)c2)nc2ccc(N3CCCC3)cc12`, the GI50 in the test on CAKI-1 renal is 1.72 µM; with HT29 colon, 1.62 µM; in the test with NCI-H522 lung, 1.66 µM; with RXF 393 renal it was 1.22 µM; in the test on SF-539 CNS, 1.59 µM; with TK-10 renal it was 1.88 µM. Besides, the TGI with CAKI-1 renal was 3.1 µM; with HT29 colon, 3.06 µM; in the test with NCI-H522 lung, 3.1 µM; with RXF 393 renal, 2.52 µM; with SF-539 CNS it was 3 µM; with TK-10 renal, 3.36 µM.

Take `CC1(C)CCOC(=O)C(Cl)CC1Cl` (configuration not stated): the TGI in the test with CAKI-1 renal, in the test with CCRF-CEM leukemia, in the test on HT29 colon, in the test on NCI-H522 lung, in the test on RXF 393 renal and with SF-539 CNS was above 100 µM in each case. In addition, the TGI in the test on T-47D breast, in the test with TK-10 renal and in the test on UACC-257 melanoma was above 100 µM in each case.

Take `CCN(CC)C(=O)CCCCCCCCC1CO1` (configuration not stated): the TGI in the test on CAKI-1 renal, in the test on CCRF-CEM leukemia, in the test with HT29 colon, with NCI-H522 lung, with RXF 393 renal and in the test with SF-539 CNS was above 100 µM in each case. The TGI in the test on TK-10 renal and with UACC-257 melanoma was above 100 µM in each case.

With `CC(NCCS(=O)(=O)O)C(=O)O` (configuration not stated), the TGI with CAKI-1 renal, in the test with CCRF-CEM leukemia, in the test with HT29 colon, in the test on NCI-H522 lung, with RXF 393 renal and with SF-539 CNS was above 100 µM throughout. This compound also returned a TGI in the test with UACC-257 melanoma above 100 µM.

Turning to `Nc1nc(N)c2ncn(CC(CO)CC(c3ccccc3)P(=O)(O)O)c2n1` (configuration not stated), the TGI in the test with CAKI-1 renal, in the test with CCRF-CEM leukemia, with HT29 colon, in the test with NCI-H522 lung, in the test on RXF 393 renal and in the test with SF-539 CNS was above 100 µM in each case. In addition, the TGI with TK-10 renal and in the test with UACC-257 melanoma was above 100 µM throughout.

Regarding `CCCCCCCCCC[C@@H](O)[C@@H]1CC[C@@H]([C@@H]2CC[C@@H]([C@@H](O)CCCCCCCCCCC(O)CC3=CC(C)OC3=O)O2)O1` (some centres not stated), the TGI in the test on CCRF-CEM leukemia, in the test with HT29 colon, with NCI-H522 lung, in the test with RXF 393 renal, in the test on SF-539 CNS and with T-47D breast was above 10 µM in each case. Moreover, the TGI in the test on TK-10 renal and in the test on UACC-257 melanoma was above 10 µM throughout.

Regarding `CC(=O)C(=C(I)I)c1ccccc1`, the TGI is 3.66 µM in the test with CAKI-1 renal; 31.7 µM with CCRF-CEM leukemia; 35.2 µM with HT29 colon; 31 µM in the test with NCI-H522 lung; 46.4 µM with RXF 393 renal; 38.9 µM in the test on SF-539 CNS. The TGI amounted to 50.4 µM with T-47D breast and 32.7 µM in the test with UACC-257 melanoma.

Take `OC1CN=C2c3ccccc3C(O)(c3ccc(Cl)cc3)N2C1` (configuration not stated): the TGI in the test on CAKI-1 renal, in the test on CCRF-CEM leukemia, with HT29 colon, in the test on NCI-H522 lung, in the test on RXF 393 renal and in the test with SF-539 CNS was above 100 µM each time. Further, the TGI is above 100 µM in the test on T-47D breast and 65.7 µM in the test on TK-10 renal.
